From publication PMC7700221, “Antiproliferative Homoleptic and Heteroleptic Phosphino Silver(I) Complexes: Effect of Ligand Combination on Their Biological Mechanism of Action” (Molecules, 2020) come the findings set out here.

Read-outs that look alike come from different tables or passages of the source. Where only a bound is given, the exact number is not on record here.

One assay relates to TrxR. The settings on record: 2008 cells, 18 h, 2.5 µM.
In the next assay the target is human TrxR1 (Homo sapiens, UniProt Q16881). The settings on record: isolated human TrxR1.
Assay [1] concerns A549 lung cancer cells. The assay can be described thus: cells. Particulars: Homo sapiens, A549, 72 h, read-out: IC50 (µM) ± S.D. A549.
The test system of assay [2] is BxPC3 pancreatic cancer cells. Nature of the assay: cells. The settings on record: Homo sapiens, BXPC-3, 72 h, read-out: IC50 (µM) ± S.D. BxPC3.
Assay [3] concerns MCF-7 breast cancer cells. Nature of the assay: cells. Particulars: Homo sapiens, MCF7, 72 h, read-out: IC50 (µM) ± S.D. MCF-7.
Assay [4] deals with A375 melanoma cells. Nature of the assay: cells. The settings on record: Homo sapiens, A-375, 72 h, read-out: IC50 (µM) ± S.D. A375.
Assay [5] concerns HCT-15 colon cancer cells. Nature of the assay: cells. Particulars: Homo sapiens, HCT-15, 72 h, read-out: IC50 (µM) ± S.D. HCT-15.
Assay [6] concerns A431 cervical carcinoma cells. Nature of the assay: cells. The settings on record: Homo sapiens, A-431, 72 h, read-out: IC50 (µM) ± S.D. A431.
In assay [7] the test system is MCF-7 breast cancer cells. Particulars: read-out: IC50 (µM) ± S.D. MCF-7; 72 h, MTT test. In general terms: Tetrazolium assays rely on reduction of a dye to a coloured formazan, in cell work by metabolically active cells.
Assay [8] deals with A431 cervical carcinoma cells. The settings on record: read-out: IC50 (µM) ± S.D. A431; 72 h, MTT test.
In assay [9] the test system is A549 lung cancer cells. Particulars: read-out: IC50 (µM) ± S.D. A549; 72 h, MTT test.
Assay [10] deals with 2008 ovarian cancer cells. The settings on record: read-out: IC50 (µM) ± D.S. 2008; 72 h, MTT test, cisplatin-sensitive cells.
Assay [11] has as its system HCT-15 colon cancer cells. The settings on record: for times more effective than cisplatin, HCT-15: HCT-15 cells, 72 h MTT, versus cisplatin.
The subject of assay [12] is C13* cisplatin-resistant ovarian cancer cells.
Assay [13] deals with A375 melanoma cells. Particulars: read-out: IC50 (µM) ± S.D. A375; 72 h, MTT test.
Assay [14] concerns BxPC3 pancreatic cancer cells. The settings on record: read-out: IC50 (µM) ± S.D. BxPC3; 72 h, MTT test.
Assay [15] relates to human cancer cell line panel. The settings on record: read-out: average IC50; average over the six cancer cell lines, 72 h MTT.
Assay [16] has as its system 2008 cells (cellular DNA fragmentation). Particulars: 6 h.
Protocol: About 4 × 10^4 2008 cells were seeded in 25 cm^2 flasks in growth medium (6 mL). After 24 h, cells were incubated for 3h with 2.5µM of tested compounds. Cells were washed twice with cold PBS, harvested, centrifuged, and DNA fragmentation was measured by the alkaline comet assay. Low melting point agarose, 300 μL (Trevigen Inc., Gaithersburg, MD, USA) was heated to 37 °C and combined with 2 × 10^5 cells per mL cell suspension. Each well of a 20-well CometSlide was filled with 30 μL of the cell/agarose suspension. The slides were placed in a 4 °C refrigerator in the dark for 15 min to solidify. Slides were then immersed in 50 mL of pre-chilled lysis solution containing Trizma base, Triton X-100, DMSO and left at 4 °C for 30 min to facilitate cell membrane and histone removal. After draining excess liquid, the slides were transferred to 50 mL of freshly prepared (same day) alkaline DNA unwinding solution, (200 mmol/L NaOH, 1 mmol/L EDTA, pH > 13) and incubated at room temperature in the dark for 20 min. After the unwinding step, electrophoresis was performed at 21 V for 30 min. Slides were then rinsed with distilled water and fixed 5 min in 70% ethanol. Slides were dried and stained 5 min at 4 °C with SYBR Green I (Trevigen, Inc.) diluted 1:10000 in 10 mmol/L Tris pH 7.5, 1 mmol/L EDTA, drained to remove excess staining solution and thoroughly dried at room temperature in the dark. Micrographs were taken with a Zeiss LSM-800 confocal microscope (Zeiss, Oberkochen, Germany).
The test system of assay [17] is 2008 cells. Particulars: IC50 concentrations, 24 or 48 h.
Protocol: In particular, 2008 cells were treated for 24 or 48 h with IC50 concentrations of tested Ag(I) complexes, and the percentage of cells with hypopolarized mitochondrial membrane potential was determined fluorimetrically by means of the Mito-ID® Membrane Potential Kit.
The ΔΨ was assayed using the Mito-ID® Membrane Potential Kit according to the manufacturer’s instructions (Enzo Life Sciences, Farmingdale, NY). Briefly, 2008 cells (8 × 10^3 per well) were seeded in 96-well plates; after 24 h, cells were washed with PBS and loaded with Mito-ID Detection Reagent for 30 min at 37 °C in the dark. Afterwards, cells were incubated with increasing concentrations of tested complexes. Fluorescence intensity was estimated using a plate reader (Fluoroskan Ascent FL, Labsystems, Finland) at 490 (excitation) and 590 nm (emission). Carbonyl cyanide m-chlorophenyl hydrazone (CCCP, 4 μM), a chemical inhibitor of the oxidative phosphorylation, was used as positive control.
2008 cells were treated for 24 h or 48 h with IC50 concentrations of tested complexes or CCCP (3 μM). The percentage of cells with hypopolarized mitochondrial membrane potential was determined by Mito-ID® Membrane Potential Kit. Data are the means of three independent experiments. Error bars indicate S.D.
The test system of another assay is caspase-3. The settings on record: 2008 cells, IC50, 24 or 48 h.
In another assay the test system is caspase-9. Particulars: 2008 cells, IC50 concentration, 24 h.
For assay [18], the system named is 2008 cells. Particulars: 24 h or 48 h.
Protocol: The 2008 cells (2 × 10^5) were seeded in a six-well plate in growth medium (4 mL). After 24 h, cells were incubated for 24 h with increasing concentrations of tested compounds. Subsequently, the thiol content was measured as previously described [43].
(A) Sulfhydryl content in 2008-treated cancer cells incubated for 24 h or 48 h with tested silver(I) compounds. The sulfhydryl group amount was determined by the DTNB assay.
For assay [19], the system named is 2008 cells. The settings on record: IC50 of compounds.
Protocol: The production of ROS was measured in 2008 cells (10^4 per well) grown for 24 h in a 96-well plate in RPMI medium without phenol red (Sigma Chemical Co.). Cells were then washed with PBS and loaded with 10 μM 5-(and-6)-chloromethyl-2′,7′-dichlorodihydrofluorescein diacetate acetyl ester (CM–H2DCFDA) (Molecular Probes-Invitrogen, Eugene, OR) for 25 min, in the dark. Afterwards, cells were washed with PBS and incubated with increasing concentrations of tested compounds. Fluorescence increase was estimated utilizing the wavelengths of 485 nm (excitation) and 527 nm (emission) in a Fluoroskan Ascent FL (Labsystems, Finland) plate reader.
Error bars indicate S.D. (B) effect of silver(I) compounds on hydrogen peroxide formation in 2008 cells. 2008 cells were pre-incubated in PBS/10 mM glucose medium for 20 min at 37 °C in presence of 10 µM CM-DCFDA and then treated with IC50 of silver(I) compounds.
Assay [20] has as its system 2008 cells. The settings on record: 48 h, IC50 concentrations.
Protocol: About 10^6 2008 cells were seeded in 24-well plates and, after 24 h incubation, were treated with the tested compounds and incubated for additional 24 h. Cells were then washed with cold PBS, harvested and directly fixed with 1.5% glutaraldehyde buffer with 0.2 M sodium cacodylate, pH 7.4. After washing with buffer and postfixation with 1% OsO4 in 0.2 M cacodylate buffer, specimens were dehydrated and embedded in epoxy resin (Epon Araldite). Sagittal serial sections (1 μm) were counterstained with toluidine blue; thin sections (90 nm) were given contrast by staining with uranyl acetate and lead citrate. Micrographs were taken with a Hitachi H-600 electron microscope (Hitachi, Tokyo, Japan) operating at 75 kV.

Chain of caspase-9 (P55211 whole entry): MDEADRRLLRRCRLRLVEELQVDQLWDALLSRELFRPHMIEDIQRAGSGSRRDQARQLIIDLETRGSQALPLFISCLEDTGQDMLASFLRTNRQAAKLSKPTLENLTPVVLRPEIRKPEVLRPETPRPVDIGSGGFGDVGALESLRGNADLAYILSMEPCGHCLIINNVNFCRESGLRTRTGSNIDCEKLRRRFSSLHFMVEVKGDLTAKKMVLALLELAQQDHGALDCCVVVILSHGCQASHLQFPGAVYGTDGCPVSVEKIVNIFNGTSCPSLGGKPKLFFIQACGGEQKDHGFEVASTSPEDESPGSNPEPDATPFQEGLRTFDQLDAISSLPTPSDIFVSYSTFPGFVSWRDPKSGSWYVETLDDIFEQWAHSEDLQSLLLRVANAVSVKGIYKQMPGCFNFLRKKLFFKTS
Chain of human TrxR1 (Q16881 151-649 limits assumed): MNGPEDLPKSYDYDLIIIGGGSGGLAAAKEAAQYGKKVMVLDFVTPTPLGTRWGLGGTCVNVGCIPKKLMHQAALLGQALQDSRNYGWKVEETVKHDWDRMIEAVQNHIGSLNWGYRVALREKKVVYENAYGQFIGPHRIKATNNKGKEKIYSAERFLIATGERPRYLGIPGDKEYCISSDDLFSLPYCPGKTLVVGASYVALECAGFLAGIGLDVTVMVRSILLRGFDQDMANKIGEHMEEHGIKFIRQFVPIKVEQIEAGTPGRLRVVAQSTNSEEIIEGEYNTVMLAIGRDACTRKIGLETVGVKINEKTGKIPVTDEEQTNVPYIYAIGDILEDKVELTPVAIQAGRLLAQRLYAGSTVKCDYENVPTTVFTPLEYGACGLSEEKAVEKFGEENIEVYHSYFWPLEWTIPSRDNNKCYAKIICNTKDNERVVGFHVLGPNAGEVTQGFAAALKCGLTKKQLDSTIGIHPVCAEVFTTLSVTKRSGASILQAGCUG
Protocol for CT-DNA: From the observed spectra, KSV was calculated according to the classical Stern–Volmer equation (Figure S16B).
The UV–Vis absorption spectroscopic studies and the DNA binding experiments were performed at
Experiments were performed by maintaining a fixed CT-DNA concentration (30
Sample solutions were scanned in the range
200−500 nm on a computer-controlled Varian Coulter DU 800 spectrophotometer.
EB–DNA competition experiments
The ethidium bromide (EB) displacement experiments were performed by titration with aliquots of
tested compounds of a Tris buffer solution containing 10 μM DNA (8.0–15 kbp) and 0.33 μM EB
(saturated binding levels). The fluorescence spectrum of the solution was obtained by exciting at 520
nm and measuring the emission spectra at 587 nm.
determined from the slope of the diagram F0/F versus r.
Protocol for caspase-3: (§1) The 2008 cells (1 × 10^6) were treated for 24 h with the IC50 doses of tested compounds, harvested and homogenized in a lysis buffer [1% Triton X-100, 320 nM sucrose, 5 mM EDTA, 10 mM Tris–HCl and 2 mM DTT (1,4-dithio-DL-threitol) buffer (pH 7.6)]. Protein aliquots (100 μg) were stained at 37 °C for 60 min with fluorescent caspase-3 (N-Acetyl-Asp-Glu-Val-Asp-AMC, AMC = 7-amino-4-methylcoumarin) or caspase-9 (Ac-Leu-Glu-His-Asp-AMC) substrate (Sigma Co.). Substrate hydrolysis was measured after 60 min by monitoring the release of AMC using a spectrofluorometer (excitation at 370 nm, emission at 460 nm).
(§2) Effect of silver(I) compounds on caspase-3 and -9 activation. […] Data are the means of at least three independent experiments. Error bars indicate SD.
Protocol for caspase-9: as §1, §2

As to AgNO3, the “reduction of total cellular TrxR activity” value (“reduction” below) in the assay with TrxR came out at 12%. The “TrxR1 inhibition, in words” value at human TrxR1 is given as “effective in inhibiting the redox enzyme activity at nanomolar level”.

What is called IC50 is the concentration that inhibits the measured activity by half. `CC(=O)N1CN2CN(C(C)=O)CP(C2)C1` [DAPTA, 3,7-diacetyl-1,3,7-triaza-5-phosphabicyclo [3.3.1]nonane]: the half-maximal inhibitory concentration (IC50) in the assay with A549 lung cancer cells [1] is more than 100 µM; in assay [2] it was 89.5 ± 4.1 µM; in assay [3], 85.3 ± 4 µM; in the assay with A375 melanoma cells [4] it was more than 100 µM; in [5], 67.1 ± 3.1 µM; in [6], more than 100 µM.

For Cisplatin, the IC50 in assay [7] was 7.6 ± 3 µM; in [8], 2.1 ± 0.4 µM; with A549 lung cancer cells [9], 8.4 ± 0.9 µM; in [10] it was 2.3 ± 1.1 µM; in assay [11] (read-out: IC50 (µM) ± S.D. HCT-15, 72 h, MTT test) it was 15.5 ± 2.5 µM; in [12] (read-out: IC50 (µM) ± D.S. C13*, 72 h, MTT test, cisplatin-resistant cells), 21.5 ± 3 µM. Besides, the half-inhibitory concentration (IC50) with A375 melanoma cells [13] came to 4 ± 1 µM; in [14], 10.2 ± 1.7 µM; in assay [15], 7.9 µM. The RF in assay [12] (RF = IC50 resistant/IC50 parental cell lines (C13*/2008)) is given as 9.5.

As for `c1ccc(P(c2ccccc2)c2ccccc2)cc1` [PPh3, triphenylphosphine], the IC50 in the assay with A549 lung cancer cells [1] amounted to 30.1 ± 2.1 µM; in assay [2], 62.2 ± 2.2 µM; in [3], 34.2 ± 3.4 µM; in the assay with A375 melanoma cells [4], 52.3 ± 2.5 µM; in [5], 54.1 ± 4.2 µM; in [6] it was 47.5 ± 1.1 µM. The “DNA damage in comet assay, in words” value in assay [16] is “scarcely effective in increasing comet tail lengths”.

Take [Ag(PCN)2]BF4 [Compound 9]: in the assay with TrxR, the “reduction” value is listed as “about 70%”. For the same compound, in [11], the “times more effective than cisplatin, HCT-15” value is given as “roughly 4.4 fold”.

For the compound `C1N2CN3CN1CP(C2)C3` [PTA, 1,3,5-triaza-7-phosphaadamantane], the half-inhibitory concentration (IC50) (in the assay with A549 lung cancer cells [1]; in assay [2]; in assay [3]; in the assay on A375 melanoma cells [4]; in assay [5]; in assay [6]) was more than 100 µM throughout.

In the case of [HB(pz)3]Ag(PPh3) [Compound 5], in the assay with 2008 cells [17], the “cells with hypopolarized mitochondrial membrane potential” value is on record as “increase in the percentage of hypopolarized cells similar to that induced by reference compound carbonyl cyanide-m-chlorophenylhydrazone (CCCP)”. Moreover, the “reduction” value with TrxR is given as “about 75%”. The caspase-3 activation result in the assay on caspase-3 is “time-dependent activation of caspase-3”. For the same compound, the “enhancement in caspase-9 activity compared to control cells” value in the assay with caspase-9 amounted to 3.3 fold. In addition, the “modification of DNA absorption bands” value with CT-DNA is “slight hyperchromic effect at 263 nm”. The cellular sulfhydryl content entry in the assay with 2008 cells [18] is reported as “lowest levels of cellular sulfhydryl groups”. Besides, in the assay with 2008 cells [19], the “basal ROS / hydrogen peroxide production” value is given as “increase in basal hydrogen peroxide formation rather similar to that obtained with antimycin”. The “increase of well-formed comets” value in assay [16] (IC50 dose) is given as “about 69%”. Besides, the “times more effective than cisplatin, HCT-15” value in [11] is reported as “about 7 fold”. Further, the “mitochondrial morphology by TEM” value with 2008 cells [20] was “mitochondria with disrupted cristae and a significant increase in volume (swelling)”.

As to `O=S1(=O)N2CN3CN1CP(C3)C2` [PTA-SO2], the concentration for half-maximal inhibition (IC50) with A549 lung cancer cells [1] is more than 100 µM; in assay [2], more than 100 µM; in assay [3], 69.5 ± 3.4 µM; in the assay with A375 melanoma cells [4], more than 100 µM; in assay [5], more than 100 µM; in [6] it was 56 ± 3.5 µM.

Consider `N#CCCP(CCC#N)CCC#N` [PCN, tris(cyanoethyl)phosphine], for which the IC50 (in the assay with A549 lung cancer cells [1]; in assay [2]; in [3]; in the assay with A375 melanoma cells [4]; in assay [5]; in [6]) was more than 100 µM each time.

For the compound [Ag(PPh3)4]BF4 [Compound 10], the “cells with hypopolarized mitochondrial membrane potential” value in the assay on 2008 cells [17] was “increase in the percentage of hypopolarized cells similar to that induced by reference compound carbonyl cyanide-m-chlorophenylhydrazone (CCCP)”. In the assay on TrxR, the “reduction” value is given as “about 75%”. Also, in the assay with caspase-3, the caspase-3 activation entry was “time-dependent activation of caspase-3”. In addition, in the assay with caspase-9, the “enhancement in caspase-9 activity compared to control cells” value turned out to be 2.6 fold. Besides, the “modification of DNA absorption bands” value in the assay on CT-DNA was “no significant modifications in DNA properties”. In the assay with 2008 cells [18], the cellular sulfhydryl content entry is “lowest levels of cellular sulfhydryl groups”. Further, in the assay with 2008 cells [19], the “basal ROS / hydrogen peroxide production” value is listed as “increase in basal hydrogen peroxide formation rather similar to that obtained with antimycin”. In [16], the “DNA damage in comet assay, in words” value is “barely effective in provoking DNA damage”. The “times more effective than cisplatin, HCT-15” value in [11] is recorded as “roughly 4.4 fold”. Moreover, the “mitochondrial morphology by TEM” value in the assay on 2008 cells [20] was “mitochondria with disrupted cristae and a significant increase in volume (swelling)”.
